Measurements as given in patent US20240182941A1, “XYLOSYLATED STEVIOL GLYCOSIDES AND ENZYMATIC METHODS FOR PRODUCTION” (CARGILL, INCORPORATED, priority 2021, published 2024).
Positions count from the first letter of the chain named. Values joined by “and” are separate entries in the source; they are usually repeats but may differ in a detail not shown here. Equal entries are not always repeated.

What was measured:
SEQ ID NO:1 = assay: Glycosylation of Reb F, Reb G and Dulcoside A using SEQ ID NO:1 and activated sugars; format: biochemical, Oryza sativa Japonica Group; settings: for Rhamnosylation using UDP-rhamnose compared with glucosylation and xylosylation / glucosylation and xylosylation plateauing after: -19C(O)-β-Glc residue; for glucosylation and xylosylation plateauing after: UDP-glucose and UDP-xylose
Experimental: Bioconversion reaction was carried out in a total of 100 uL sealed vials containing the Tris buffer, 0.1 μmoles of SG acceptor, 0.2 μmoles of activated sugar donor, 1 μmoles of sucrose and 2 ug protein of the enzymes. To each vial, buffer, sucrose, UDP-sugar donor, and SG acceptor were added in that order before finally the enzymes were added. For each SG donor, a control was included to contain the same amounts of sucrose and enzymes without UDP-sugar donors. After hand mixing, the vials were placed in a temperature-controlled shaker set at 30C and 100 rpm in rotating motion for 96 hours (4 days).
After 4 days of reaction, 0.9 mL of 80% acetonitrile was added to each vial and the resulting samples were analyzed in LC/MS. Xylose modification of the -19C(O)-β-Glc residue was confirmed.
The ability of SEQ ID NO:1 to glycosylate the -19C(O)-β-Glc residue of RebF, RebG, and Dulcoside A with different activated sugars used at different concentrations was examined, with the reaction products formed being measured over the course of the reaction.
UDP-glucose, UDP-xylose, and UDP-rhamnose di-sodium salts were used, and the reagents and reaction conditions were as described in Example 1.

[1] = Glycosyltransferase assay of SEQ ID NO:1 homologs and variants (IVTT enzymes) on Reb A; format: biochemical; settings: Reb A acceptor; for Activity relative to the activity of SEQ ID NO:1, Glucose: UDP-glucose; for Activity relative to the activity of SEQ ID NO:1, Glucose / Activity relative to the activity of SEQ ID NO:1, Xylose: SEQ ID1 = 100%; for Activity relative to the activity of SEQ ID NO:1, Xylose: UDP-xylose
Experimental: Candidate xylosyltransferase enzymes are produced in vitro using the PURExpress In Vitro Protein Synthesis kit from New England Biolabs (NEB #E6800) according to the manufacturer's instructions, including 250 ng plasmid DNA and the addition of 20 units RNase Inhibitor, Murine (NEB #M0314).
The steviol glycoside (SG) ‘acceptors’ Reb A was tested using 4 glucosyltransferase enzymes (SEQ ID NOs: 1-4) homologous to glucosyltransferases in SG biosynthesis in stevia leaves.
UDP-xylose (98.9% purity) was purchased from BOC Sciences. The activated sugar donors were prepared to 10 mM concentration with 0.05 M tris buffer and stored according to manufacturers' recommendations before use. SG materials were obtained from various sources with 90%+ purities. All SG materials were prepared at 20 mM with 90% DMSO and stored at ambient temperature. Final DMSO concentration in the reaction mixture was 4.5%.
Tris (tris(hydroxymethyl)aminomethane) buffer was prepared at 0.05 M, pH 7.3 and contained 3 mM each of MgCl2 and MnCl2 as co-factors.
Enzymes were produced via in vitro transcription-translation (IVTT) and activities were confirmed using UDP-glucose in a preliminary test. Bioconversion reaction was carried out in a total of 100 μL sealed vials containing the Tris buffer, 0.1 μmoles of SG acceptor, 0.2 μmoles of activated sugar donor, 1 μmoles of sucrose and 2 μg protein of the enzymes. To each vial, buffer, UDP-sugar donor, SG acceptor were added in that order before, finally, the enzymes were added. For each SG donor, a control was included to contain the same amounts of enzymes without UDP-sugar donors. […]
[…] Xylose modification of the -19C(O)-β-Glc residue was confirmed.
Activity of SEQ ID NOs: 2-4 is expressed relative to the activity of SEQ ID NO:1. […] [SEQ ID NO:3 was run more than once in this experiment,]

## C=C1C[C@@]23CC[C@H]4[C@@](C)(CCC[C@@]4(C)C(=O)O[C@@H]4O[C@H](CO)[C@@H](O)[C@H](O)[C@H]4O)[C@@H]2CC[C@]1(O[C@@H]1O[C@H](CO)[C@@H](O)[C@H](O)[C@H]1O[C@@H]1O[C@@H](C)[C@H](O)[C@@H](O)[C@H]1O)C3 [Dulcoside A, dulcoside A]
SEQ ID NO:1
  Rhamnosylation using UDP-rhamnose compared with glucosylation and xylosylation: significantly lower
  glucosylation and xylosylation plateauing after: 20 min
SEQ ID NO:1; UDP-Glucose, 0 hours
  % Dul A bioconversion: 0%
SEQ ID NO:1; UDP-Glucose, 15 hours
  % Dul A bioconversion: 77.162%
SEQ ID NO:1; UDP-Glucose, 48 hours
  % Dul A bioconversion: 75.215%
SEQ ID NO:1; UDP-Glucose, 96 hours
  % Dul A bioconversion: 73.71%
SEQ ID NO:1; UDP-Rhamnose, 0 hours
  % Dul A bioconversion: 0%
SEQ ID NO:1; UDP-Rhamnose, 15 hours
  % Dul A bioconversion: 17.384%
SEQ ID NO:1; UDP-Rhamnose, 48 hours
  % Dul A bioconversion: 27.427%
SEQ ID NO:1; UDP-Rhamnose, 96 hours
  % Dul A bioconversion: 32.608%
SEQ ID NO:1; UDP-Xylose, 0 hours
  % Dul A bioconversion: 0%
SEQ ID NO:1; UDP-Xylose, 15 hours
  % Dul A bioconversion: 79.34%
SEQ ID NO:1; UDP-Xylose, 48 hours
  % Dul A bioconversion: 79.919%
SEQ ID NO:1; UDP-Xylose, 96 hours
  % Dul A bioconversion: 79.349%

## rebaudioside F [Reb F]
SEQ ID NO:1
  Rhamnosylation using UDP-rhamnose compared with glucosylation and xylosylation: significantly lower
  glucosylation and xylosylation plateauing after: 20 min
SEQ ID NO:1; UDP-Glucose, 0 hours
  % Reb F bioconversion: 0%
SEQ ID NO:1; UDP-Glucose, 15 hours
  % Reb F bioconversion: 85.9%
SEQ ID NO:1; UDP-Glucose, 48 hours
  % Reb F bioconversion: 85.96%
SEQ ID NO:1; UDP-Glucose, 96 hours
  % Reb F bioconversion: 84.4%
SEQ ID NO:1; UDP-Rhamnose, 0 hours
  % Reb F bioconversion: 0%
SEQ ID NO:1; UDP-Rhamnose, 15 hours
  % Reb F bioconversion: 17.5%
SEQ ID NO:1; UDP-Rhamnose, 48 hours
  % Reb F bioconversion: 28.412%
SEQ ID NO:1; UDP-Rhamnose, 96 hours
  % Reb F bioconversion: 33.216%
SEQ ID NO:1; UDP-Xylose, 0 hours
  % Reb F bioconversion: 0%
SEQ ID NO:1; UDP-Xylose, 15 hours
  % Reb F bioconversion: 86.406%
SEQ ID NO:1; UDP-Xylose, 48 hours
  % Reb F bioconversion: 86.2%
SEQ ID NO:1; UDP-Xylose, 96 hours
  % Reb F bioconversion: 84.179%

## C=C1C[C@@]23CC[C@H]4[C@@](C)(CCC[C@@]4(C)C(=O)O[C@@H]4O[C@H](CO)[C@@H](O)[C@H](O)[C@H]4O)[C@@H]2CC[C@]1(O[C@@H]1O[C@H](CO)[C@@H](O)[C@H](O[C@@H]2O[C@H](CO)[C@@H](O)[C@H](O)[C@H]2O)[C@H]1O)C3 [Reb G, rebaudioside G]
SEQ ID NO:1
  Rhamnosylation using UDP-rhamnose compared with glucosylation and xylosylation: significantly lower
  glucosylation and xylosylation plateauing after: 20 min
SEQ ID NO:1; UDP-Glucose, 0 hours
  % Reb G bioconversion: 0%
SEQ ID NO:1; UDP-Glucose, 15 hours
  % Reb G bioconversion: 87.748%
SEQ ID NO:1; UDP-Glucose, 48 hours
  % Reb G bioconversion: 85.225%
SEQ ID NO:1; UDP-Glucose, 96 hours
  % Reb G bioconversion: 83.427%
SEQ ID NO:1; UDP-Rhamnose, 0 hours
  % Reb G bioconversion: 0%
SEQ ID NO:1; UDP-Rhamnose, 15 hours
  % Reb G bioconversion: 17.055%
SEQ ID NO:1; UDP-Rhamnose, 48 hours
  % Reb G bioconversion: 26.923%
SEQ ID NO:1; UDP-Rhamnose, 96 hours
  % Reb G bioconversion: 31.347%
SEQ ID NO:1; UDP-Xylose, 0 hours
  % Reb G bioconversion: 0%
SEQ ID NO:1; UDP-Xylose, 15 hours
  % Reb G bioconversion: 78.904%
SEQ ID NO:1; UDP-Xylose, 48 hours
  % Reb G bioconversion: 78.311%
SEQ ID NO:1; UDP-Xylose, 96 hours
  % Reb G bioconversion: 77.211%

B1: SEQ ID3: glucosyltransferase enzyme, 27% identity to SEQ ID NO:1 (protein, listed as Solanum lycopersicum)
chain: MATNLRVLMFPWLAYGHISPFLNIAKQLADRGFLIYLCSTRINLESIIKKIPEKYADSIHLIELQLPELPELPPHYHTTNGLPPHLNPTLHKALKMSKPNFSRILQNLKPDLLIYDVLQPWAEHVANEQNIPAGKLLTSCAAVFSYFFSFRKNPGVEFPFPAIHLPEVEKVKIREILAKEPEEGGRLDEGNKQMMLMCTSRTIEAKYIDYCTELCNWKVVPVGPPFQDLITNDADNKELIDWLGTKHENSTVFVSFGSEYFLSKEDMEEVAFALELSNVNFIWVARFPKGEERNLEDALPKGFLERIGERGRVLDKFAPQPRILNHPSTGGFISHCGWNSAMESIDFGVPIIAMPIHNDQPINAKLMVELGVAVEIVRDDDGKIHRGEIAETLKSVVTGETGEILRAKVREISKNLKSIRDEEMDAVAEELIQLCRNSNKSK
[1]; 18 hrs
  Activity relative to the activity of SEQ ID NO:1, Glucose: 81.5% and 148%
  Activity relative to the activity of SEQ ID NO:1, Xylose: 47.1% and 78.1%
[1]; 48 hrs
  Activity relative to the activity of SEQ ID NO:1, Glucose: 87.1% and 132%
  Activity relative to the activity of SEQ ID NO:1, Xylose: 51.0% and 78.6%
[1]; 96 hrs
  Activity relative to the activity of SEQ ID NO:1, Glucose: 99.1% and 148%
  Activity relative to the activity of SEQ ID NO:1, Xylose: 38.9% and 62.1%

B2: SEQ ID2: glycosyltransferase variant with a single serine to isoleucine change at position 152 relative to SEQ ID NO:1 (protein, listed as Oryza sativa)
chain: MDSGYSSSYAAAAGMHVVICPWLAFGHLLPCLDLAQRLASRGHRVSFVSTPRNISRLPPVRPALAPLVAFVALPLPRVEGLPDGAESTNDVPHDRPDMVELHRRAFDGLAAPFSEFLGTACADWVIVDVFHHWAAAAALEHKVPCAMMLLGIAHMIASIADRRLERAETESPAAAGQGRPAAAPTFEVARMKLIRTKGSSGMSLAERFSLTLSRSSLVVGRSCVEFEPETVPLLSTLRGKPITFLGLMPPLHEGRREDGEDATVRWLDAQPAKSVVYVALGSEVPLGVEKVHELALGLELAGTRFLWALRKPTGVSDADLLPAGFEERTRGRGVVATRWVPQMSILAHAAVGAFLTHCGWNSTIEGLMFGHPLIMLPIFGDQGPNARLIEAKNAGLQVARNDGDGSFDREGVAAAIRAVAVEEESSKVFQAKAKKLQEIVADMACHERYIDGFIQQLRSYKD
[1]; Table 8
  overall activity relative to SEQ ID NO:1: substantially overall increased activity
[1]; 18 hrs
  Activity relative to the activity of SEQ ID NO:1, Glucose: 825%
  Activity relative to the activity of SEQ ID NO:1, Xylose: 459%
[1]; 48 hrs
  Activity relative to the activity of SEQ ID NO:1, Glucose: 578%
  Activity relative to the activity of SEQ ID NO:1, Xylose: 392%
[1]; 96 hrs
  Activity relative to the activity of SEQ ID NO:1, Glucose: 504%
  Activity relative to the activity of SEQ ID NO:1, Xylose: 312%

B3: SEQ ID1: uridine 5′-diphospho (UDP) glycosyl transferase of 462 amino acids from Oryza sativa Japonica Group (protein, listed as Oryza sativa)
chain: B2 chain with I152S
[1]; 18 hrs
  Activity relative to the activity of SEQ ID NO:1, Glucose: 100%
  Activity relative to the activity of SEQ ID NO:1, Xylose: 100%
[1]; 48 hrs
  Activity relative to the activity of SEQ ID NO:1, Glucose: 100%
  Activity relative to the activity of SEQ ID NO:1, Xylose: 100%
[1]; 96 hrs
  Activity relative to the activity of SEQ ID NO:1, Glucose: 100%
  Activity relative to the activity of SEQ ID NO:1, Xylose: 100%

B4: SEQ ID4: glucosyltransferase enzyme, 25% identity to SEQ ID NO:1 (protein, listed as Lycium barbarum)
chain: MGTEVTVHKNTLRVLMFPWLAYGHISPFLNVAKKLVDRGFLIYLCSTAINLKSTIKKIPEKYSDSIQLIELHLPELPELPPHYHTTNGLPPHLNHTLQKALKMSKPNFSKILQNLKPDLVIYDLLQQWAEGVANEQNIPAVKLLTSGAAVLSYFFNLVKKPGVEFPFPAIYLRKNELEKMSELLAQSAKDKEPDGVDPFADGNMQVMLMSTSRIIEAKYIDYFSGLSNWKVVPVGPPVQDPIADDADEMELIDWLGKKDENSTVFVSFGSEYFLSKEDREEIAFGLELSNVNFIWVARFPKGEEQNLEDALPKGFLERIGDRGRVLDKFAPQPRILNHPSTGGFISHCGWNSVMESVDFGVPIIAMPIHLDQPMNARLIVELGVAVEIVRDDYGKIHREEIAEILKDVIAGKSGENLKAKMRDISKNLKSIRDEEMDTAAEELIQLCKNSPKLK
[1]; 18 hrs
  Activity relative to the activity of SEQ ID NO:1, Glucose: 174%
  Activity relative to the activity of SEQ ID NO:1, Xylose: 11.5%
[1]; 48 hrs
  Activity relative to the activity of SEQ ID NO:1, Glucose: 151%
  Activity relative to the activity of SEQ ID NO:1, Xylose: 9.68%
[1]; 96 hrs
  Activity relative to the activity of SEQ ID NO:1, Glucose: 170%
  Activity relative to the activity of SEQ ID NO:1, Xylose: 10.9%
